The results in this text go back to ChEMBL document CHEMBL1156868, “One step radiosynthesis of 6-[(18)F]fluoronicotinic acid 2,3,5,6-tetrafluorophenyl ester ([(18)F]F-Py-TFP): a new prosthetic group for efficient labeling of biomolecules with fluorine-18” (J Med Chem, 2010).

The target in this experiment is Integrin alpha-V/beta-3 (Homo sapiens, UniProt P05106+P06756). Description: Displacement of [125I]echistatin from alphaVbeta3 receptor in human EA-Hy926 cells by gamma-counting. The format is cell-based. A general note: Loss of bound radioactivity is the signal in a displacement assay; it reports binding, not function.
Sequence of Integrin alpha-V/beta-3 (P05106 27-788 limits assumed): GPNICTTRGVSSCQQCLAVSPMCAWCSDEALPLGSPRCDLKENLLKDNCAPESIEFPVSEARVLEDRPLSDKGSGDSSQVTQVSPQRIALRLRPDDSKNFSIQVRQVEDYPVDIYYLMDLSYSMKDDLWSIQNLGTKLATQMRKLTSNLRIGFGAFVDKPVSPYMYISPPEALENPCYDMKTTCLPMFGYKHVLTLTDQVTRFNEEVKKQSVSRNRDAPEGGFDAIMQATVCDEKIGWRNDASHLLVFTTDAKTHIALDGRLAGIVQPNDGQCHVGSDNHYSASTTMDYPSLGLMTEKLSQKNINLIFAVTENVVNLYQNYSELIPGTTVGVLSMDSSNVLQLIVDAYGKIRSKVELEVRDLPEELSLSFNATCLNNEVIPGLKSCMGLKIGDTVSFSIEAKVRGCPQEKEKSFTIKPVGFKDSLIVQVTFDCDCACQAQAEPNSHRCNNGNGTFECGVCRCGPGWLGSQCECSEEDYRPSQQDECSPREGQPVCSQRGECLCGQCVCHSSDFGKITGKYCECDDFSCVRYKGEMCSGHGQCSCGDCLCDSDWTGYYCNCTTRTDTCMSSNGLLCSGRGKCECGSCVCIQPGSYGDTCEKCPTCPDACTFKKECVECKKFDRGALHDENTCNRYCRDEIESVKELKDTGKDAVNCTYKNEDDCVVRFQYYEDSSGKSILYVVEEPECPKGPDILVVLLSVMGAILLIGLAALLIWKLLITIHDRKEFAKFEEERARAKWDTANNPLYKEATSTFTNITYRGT
Sequence of Integrin alpha-V/beta-3 (P06756 31-889 limits assumed): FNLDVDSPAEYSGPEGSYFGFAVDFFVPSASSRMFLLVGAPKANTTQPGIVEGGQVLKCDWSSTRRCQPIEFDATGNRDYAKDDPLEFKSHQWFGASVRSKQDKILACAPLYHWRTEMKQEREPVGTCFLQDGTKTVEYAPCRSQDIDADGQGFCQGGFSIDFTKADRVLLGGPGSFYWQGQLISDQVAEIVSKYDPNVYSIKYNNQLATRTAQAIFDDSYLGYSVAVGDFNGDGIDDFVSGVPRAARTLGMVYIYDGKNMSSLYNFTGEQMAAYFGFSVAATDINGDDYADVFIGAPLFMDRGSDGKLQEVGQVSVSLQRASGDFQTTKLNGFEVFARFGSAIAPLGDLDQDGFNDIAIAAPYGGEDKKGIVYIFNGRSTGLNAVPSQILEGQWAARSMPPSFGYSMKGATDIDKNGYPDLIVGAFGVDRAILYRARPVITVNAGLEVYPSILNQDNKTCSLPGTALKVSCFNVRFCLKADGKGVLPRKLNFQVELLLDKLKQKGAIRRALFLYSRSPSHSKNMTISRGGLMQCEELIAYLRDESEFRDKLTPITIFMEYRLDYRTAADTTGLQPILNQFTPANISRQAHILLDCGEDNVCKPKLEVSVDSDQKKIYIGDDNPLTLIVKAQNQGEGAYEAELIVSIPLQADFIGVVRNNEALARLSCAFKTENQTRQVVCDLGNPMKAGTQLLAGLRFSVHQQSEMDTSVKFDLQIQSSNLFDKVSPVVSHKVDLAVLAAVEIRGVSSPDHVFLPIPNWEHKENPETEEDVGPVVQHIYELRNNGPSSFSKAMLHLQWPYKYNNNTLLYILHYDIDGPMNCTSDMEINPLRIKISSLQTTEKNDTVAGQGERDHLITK
Sequence of Integrin alpha-V/beta-3 (P06756 891-1048 limits assumed): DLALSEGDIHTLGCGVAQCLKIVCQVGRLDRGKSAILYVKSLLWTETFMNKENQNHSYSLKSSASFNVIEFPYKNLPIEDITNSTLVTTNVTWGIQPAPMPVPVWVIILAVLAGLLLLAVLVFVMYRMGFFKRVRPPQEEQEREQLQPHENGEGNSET
In the case of `Cc1cc(C)c(S(=O)(=O)N[C@H](CNC(=O)c2cn(CCCNC(=O)COCC(=O)NCCOCCOCCOCCOCCOCCOCCOCCOCCOCCOCCOCCNC(=O)c3ccc(F)nc3)c3cc(CNc4ncc[nH]4)ccc3c2=O)C(=O)O)c(C)c1`, affinity was put at a Ki of 14.8 nM.

Consider `NC(=O)COCC(=O)NCCOCCOCCOCCNC(=O)[C@@H]1CSCC(=O)N[C@@H](CCCCNC(=O)COCC(=O)NCCOCCOCCOCCOCCOCCNC(=O)CONC(=O)c2ccc(F)nc2)C(=O)N[C@H]2CSSC[C@H](NC(=O)[C@H](CC(=O)O)NC(=O)CNC(=O)[C@H](CCCN=C(N)N)NC2=O)C(=O)N[C@@H](Cc2ccccc2)C(=O)C1`, for which affinity was put at a Ki of 2 nM. For `Cc1cc(C)c(S(=O)(=O)N[C@H](CNC(=O)c2cn(CCCNC(=O)c3ccc(F)nc3)c3cc(CNc4ncc[nH]4)ccc3c2=O)C(=O)O)c(C)c1`, affinity was put at a Ki of 19.1 nM.
